Our source for the Activity, IC50 and inhibition values is ChEMBL document CHEMBL5120896, “Hydroanthraquinones from Nigrospora sphaerica and Their Anti-inflammatory Activity Uncovered by Transcriptome Analysis” (J Nat Prod, 2022).

Data set [1] has as its system RAW264.7. In words: Cytotoxicity against mouse RAW264.7 cells assessed as reduction in cell viability at 80 uM incubated for 24 hrs by MTT assay. It counts as toxicity, cell-based. The settings on record: raw264.7, 24 h.
Data set [2] concerns RAW264.7. In words: Anti-inflammatory activity against mouse RAW264.7 cells assessed as inhibition of LPS-induced NO production at 60 uM pretreated for 1 hr followed by incubation with LPS and measured after 24 hrs by Griess reagent based analysis. It counts as functional, cell-based. The settings on record: time 25.0 hrs. (In general: The Griess reaction detects nitrite, a stable product of nitric oxide.)

The next data set deals with SW-620. As to the kind of experiment: Cytotoxicity against human SW-620 cells assessed as reduction in metabolically active cells by MTT assay. It counts as functional, cell-based. For orientation: Tetrazolium assays rely on reduction of a dye to a coloured formazan, in cell work by metabolically active cells.
Data set [3] concerns RAW264.7. In words: Anti-inflammatory activity against mouse RAW264.7 cells assessed as inhibition of LPS-induced ROS production at 15 to 60 uM pretreated for 1 hr followed by incubation with LPS for 24 hrs by DCFH-DA staining based flow cytometry. The settings on record: dose 15-60 µM, time 25.0 hrs. It counts as functional, cell-based. In general terms: In flow cytometry, cells or beads pass a laser one at a time.

Data set [4] has as its system RAW264.7. As to the kind of experiment: Anti-inflammatory activity against mouse RAW264.7 cells assessed as inhibition of LPS-induced ROS production at 10 to 40 uM pretreated for 1 hr followed by incubation with LPS for 24 hrs by DCFH-DA staining based fluorescence microscopy. The settings on record: dose 10-40 µM, time 25.0 hrs. It counts as functional, cell-based.

The test system of data set [5] is RAW264.7. In words: Anti-inflammatory activity against LPS-activated mouse RAW264.7 cells assessed as reduction of TNF-alpha gene expression at 7.5 to 30 uM pretreated for 1 hr followed by incubation with LPS for 24 hrs by qRT-PCR analysis. The data set is classed as functional, cell-based. The settings on record: dose 7.5-30 µM, time 25.0 hrs.
Data set [6] relates to RAW264.7. As to the kind of experiment: Anti-inflammatory activity against mouse RAW264.7 cells assessed as inhibition of LPS-induced NO production pretreated for 1 hr followed by incubation with LPS and measured after 24 hrs by Griess reagent based analysis. It counts as functional, cell-based.
Data set [7] deals with RAW264.7. As to the kind of experiment: Anti-inflammatory activity against LPS-activated mouse RAW264.7 cells assessed as reduction of IL-1 beta gene expression at 7.5 to 30 uM pretreated for 1 hr followed by incubation with LPS for 24 hrs by qRT-PCR analysis. The settings on record: dose 7.5-30 µM, time 25.0 hrs. The data set is classed as functional, cell-based.
For data set [8], the system named is RAW264.7. As to the kind of experiment: Anti-inflammatory activity against LPS-activated mouse RAW264.7 cells assessed as reduction of IL-6 gene expression at 7.5 to 30 uM pretreated for 1 hr followed by incubation with LPS for 24 hrs by qRT-PCR analysis. The data set is classed as functional, cell-based. The settings on record: dose 7.5-30 µM, time 25.0 hrs.

In data set [9] the test system is RAW264.7. As to the kind of experiment: Anti-inflammatory activity against LPS-activated mouse RAW264.7 cells assessed as reduction of NFkappaB p52 gene expression at 7.5 to 30 uM pretreated for 1 hr followed by incubation with LPS for 24 hrs by qRT-PCR analysis. The data set is classed as functional, cell-based. The settings on record: dose 7.5-30 µM, time 25.0 hrs.

For a further data set, the species on record is Danio rerio. In words: Anti-inflammatory activity against Zebra fish embryo assessed as inhibition of LPS-induced ROS production at 5 uM pretreated with LPS followed by incubation with drug by fluorescence microscopy. The data set is classed as functional, organism-based.
Data set [10] relates to RAW264.7. In words: Inhibition of NF-kappaB in mouse RAW264.7 cells assessed as inhibition of LPS-induced NF-kappaB p65 nuclear translocation at 15 to 60 uM pretreated for 1 hr followed by incubation with LPS for 24 hrs by immunofluorescence analysis. The settings on record: dose 15-60 µM, time 25.0 hrs. It counts as cell-based.
In data set [11] the test system is RAW264.7. In words: Downregulation of phospho-IKKalpha/beta expression in LPS-activated mouse RAW264.7 cells at 7.5 to 30 uM pretreated for 1 hr followed by incubation with LPS for 24 hrs by western blot analysis. The data set is classed as functional, cell-based. The settings on record: dose 7.5-30 µM, time 25.0 hrs.
Data set [12] concerns RAW264.7. In words: Downregulation of NF-kappaB expression in LPS-activated mouse RAW264.7 cells at 7.5 to 30 uM pretreated for 1 hr followed by incubation with LPS for 24 hrs by western blot analysis. It counts as functional, cell-based. The settings on record: dose 7.5-30 µM, time 25.0 hrs.

A word on the IC50: it is the concentration at which inhibition is half-maximal.

Structures are written as SMILES. Active and inactive are the calls of the source. The rule behind the calls is not given here.

For the molecule `COc1cc(O)c2c(c1O)C(=O)C1=C(C[C@@H](O)[C@@](C)(O)C1)C2=O`, in the data set with RAW264.7 [1], the Activity result was “Toxic”.

Turning to `COc1cc(O)c2c(c1O)[C@H](OC)[C@H]1C[C@](C)(O)[C@H](O)[C@@H](O)[C@@H]1C2=O`, in the data set on RAW264.7 [2], the outcome was Active.

As for `COc1cc(O)c2c(c1O)[C@@H](OC)[C@H]1C[C@](C)(O)[C@H](O)C[C@@H]1C2=O`, the outcome in the data set on RAW264.7 [2] was Active.

As for `COc1cc(O)c2c(c1O)C(O)C1C[C@](C)(O)[C@H](O)CC1C2=O` (stereo partly drawn), in the data set on RAW264.7 [1], the Activity entry was “Toxic”.

For the molecule `COc1cc(O)c2c(c1O)[C@H](OC)[C@H]1C[C@](C)(O)[C@H](O)C[C@@H]1C2=O`, the outcome in the data set with RAW264.7 [2] was Active.

On to `COc1cc(O)c2c(c1O)[C@H](OC)[C@H]1C[C@](C)(O)[C@H](O)[C@@H](O)[C@H]1C2=O`, for which the Activity result in the data set on RAW264.7 [1] was “Toxic”.

Regarding `COc1cc(O)c2c(c1O)[C@H]1O[C@]3(C)C[C@H]1[C@@H](C[C@@H]3O)C2=O`, the Activity result in the data set on RAW264.7 [1] is “Toxic”.

`COc1cc(O)c2c(c1O)[C@H](O)[C@H]1C[C@](C)(O)[C@H](O)C[C@H]1C2=O`: the result in the data set with RAW264.7 [2] was Active.

Take `COc1cc(O)c2c(c1N)C(=O)C1=C(C[C@@H](O)[C@@](C)(O)C1)C2=O`: the outcome with RAW264.7 [2] was Active.

As to `COC1=CC(=O)c2c(cc3c(c2O)[C@H](O)[C@@H](O)[C@@](C)(O)C3)C1=O`, the Activity result in the data set on RAW264.7 [1] was “Toxic”. Also, in the data set with SW-620, the IC50 was 13.7 µM.

In the case of `COc1cc(O)c2c(c1O)[C@@H](OC)[C@H]1C[C@](C)(O)[C@H](O)[C@@H](O)[C@@H]1C2=O`, the outcome in the data set with RAW264.7 [2] was Active.

For `C[C@]1(O)C[C@@]2(O)[C@H](C[C@H]1O)C(=O)c1c(O)ccc(O)c1[C@@H]2O`, in the data set on RAW264.7 [2], the outcome was Active.

`COc1cc(O)c2c(c1O)C(=O)[C@H]1C[C@](C)(O)[C@H](O)[C@@H](O)[C@@H]1C2=O`: the result with RAW264.7 [2] was Active.

Take `COc1cc(O)c2c(c1O)[C@H](O)[C@H]1C[C@](C)(O)C[C@@H](O)[C@@H]1C2=O`: the Activity entry in the data set on RAW264.7 [1] is reported as “Toxic”.

Regarding `COc1cc(O)c2c(c1O)[C@H](O)[C@H]1C[C@](C)(O)[C@H](O)[C@@H](O)[C@@H]1C2=O` [9ALPHA-HYDROXYHALOROSELLINIA A], the Activity result in the data set with RAW264.7 [1] is given as “Toxic”.

In the case of `COc1cc(O)c2c(c1O)[C@H](O)[C@H]1C[C@](C)(O)[C@H](O)[C@@H](O)[C@H]1C2=O`, the result with RAW264.7 [3], in the data set with RAW264.7 [4], in the data set on RAW264.7 [2], in the data set on RAW264.7 [5], in the data set on RAW264.7 [7] and with RAW264.7 [8] was Active. Also, the outcome in the data set on RAW264.7 [9] and in the data set filed under Danio rerio was Active. For the same molecule, the IC50 in the data set on RAW264.7 [6] was found to be 7.5 µM. Besides, the inhibition result in the data set with RAW264.7 [10], in the data set on RAW264.7 [11] and with RAW264.7 [12] was “Active” in each case.
